According to US6551774B1, “Diagnostic methods for conditions associated with elevated cellular levels of telomerase activity” (Board of Regents, The University of Texas System, priority 1992, dated 2003):

Legend:
[1] = tested on: IDH4 immortalized human fibroblast cell line; experiment: IDH4 cells incubated with GTO: population doublings and TRF length (Example 12); type: cell-based; settings: for population doublings in 90 days: fed every other day (control 45 PDL)
Procedure: As in Example 2, an immortalized human fibroblast cell line, IDH4, which has very short TRFs, was incubated with GTO oligonucleotide. Referring to FIGS. 15 and 16, cells were incubated in regular culture medium containing serum in the presence of 10 μM, 30 μM and 100 μM GTO. The cells were fed fresh phosphodiester GTO oligonucleotide every other day and subcultured when confluent for a total of 90 days. The cells were still growing in GTO after 90 days at all concentrations used even though they grew more slowly at the higher GTO concentrations and went through fewer population doubling (control, 45 PDL; 10 μM GTO 40 PDL; 30 μM 35 PDL; 100 μM 25 PDL). […] The control and 30 μM GTO were passaged without oligonucleotide addition for an additional 90 days (approximately 35-40 PDL). As is illustrated in FIG. 16, the TRFs slowly shorten.

[2] = tested on: MDA 157 human breast cancer cells; experiment: Proliferation of MDA 157 cancer cells fed oligonucleotides (Example 2); type: cell-based
Procedure: Specifically, MDA 157 human breast cancer cells with an immortal phenotype were seeded at 10,000 cells per well in 12 well tissue culture dishes and fed medium only or medium supplemented with GTO-12 (at 1.0 μM, 0.1 μM, and 0.01 μM). […] Cells fed the GTO-12 oligonucleotide, at 1.0 μM, however, ceased to proliferate after less than 10 doubling. […] The lack of effect of the G+C mixture may reflect the CTO-12 oligonucleotide, competing with or base pairing with the GTO-12 oligonucleotide, this preventing its inhibitory effect on the cancer cell telomerase.

Tetrahymena cells [3] = experiment: Single-cell transfer cultures of Tetrahymena with AZT or Ara-G; type: cell-based, Tetrahymena thermophila; settings: 10 μM AZT; 10 μM or 1 mM Ara-G; 1 to 10 cells per well
Procedure: For analysis of vegetative growth and macronuclear DNA from single-cell cultures containing the nucleoside analogs AZT or Ara-G, SB210 (VI) cells were grown from stationary stock cultures overnight at 30° C. with shaking (100 rpm) in 50 ml 2% PPYS or Isobroth. Cells were counted and added to the appropriate medium plus analog (Ara-G to 1 mM or DMSO to 1% as control in 2% PPYS; AZT to 10 μm or 1 mM, or no addition as control in Isobroth) and plated in 96-well plates (Falcon), 100 μl per well at a density of 1 cell per well. 5 plates were prepared for each analog or control. Wells were scored for cell growth and plates were replica plated every 1-2 days (Ara-G and DMSO plates) or every 2-4 days (AZT and Isobroth control plates) to maintain approximate inoculation densities of 1-10 cells per well for each passage. Occasionally individual wells were passaged by hand (1 μl inoculated per well using a pipettor) into several blank wells, to expand the number of live wells per plate as single-cell cultures were lost over time due to low probability of being transferred at each passage. After passaging, cells were pooled, pelleted and stored at −80° C. until processed for DNA analysis.
To test whether we had missed such a subpopulation of cells, we carried out the same experiments on vegetatively dividing Tetrahymena cells in the presence and absence of drug, but in these experiments the subculturing was carried out by plating cells at an average of 1 to 10 cells per well in microtiter plate wells in the presence of 10 μM and 1 mM AZT, and 10 μM and 1 mM Ara-G. For each drug, cells were plated out in this manner for 30 consecutive days (90 to 150 cell generations) and 16 consecutive days (50 to 80 cell generations) respectively for the 10 μM and 1 mM drug concentrations. DNA was isolated at intervals from combined samplings of the wells for analysis of telomere length.

[4] = tested on: lymphoma cell line JY 616; experiment: Growth of cultured JY lymphoma cells with potential telomerase inhibitors; type: cell-based, human; settings: 20 μM
Procedure: (§1) The effect of the agents on telomerase activity in intact cells was then studied utilizing the lymphoma cell line JY 616 which were maintained in RPMI 1640 with […] Hepes, 10% FCS, and penicillin/streptomycin (Gibco). The cells were cultured in 6-well plates (Falcon) with 5.0 ML of medium per well in duplicate. Cells were passaged every 7-10 days which corresponded to 5-7 mean population doublings (MPD), and seeded at 3×10^4 cells per well into fresh medium containing analog or control. Cell viability was monitored prior to harvest utilizing trypan blue stain (Gibco) during counting with a hemocytometer. The average ratio of stained: unstained cells (dead:alive) was […]. The intactness of the DNA was measured on a parallel gel by observing its mobility in a gel prior to digestion by a restriction enzyme.

Tetrahymena cells [5] = experiment: Progeny formation (cycloheximide resistance) of Tetrahymena conjugated in the presence of analog; type: cell-based, Tetrahymena thermophila; settings: for # CHX-R: number of cycloheximide-resistant wells; for irreversible disruption of macronuclear development: analog present during conjugation
Procedure: For analysis of cycloheximide (CHX) sensitivity of cells conjugated in the presence of analog, 50 ml cultures of each cell type were grown overnight in 2% PPYS, starved in Dryl's for 18 hours, mated (5×10^5 cells/ml) for 6 hours, then analog was added. Cells were allowed to complete mating in the presence of the analog. Twenty-four hours after mixing, cells were diluted in Dryl's solution, counted and plated at 1 cell per well of 96-well plates in 1% PPYS without analog. Cells were grown for 4 days in a humid chamber at 30° C., without shaking. Cells were then replica plated into 1% PPYS plus 15 μg/ml cycloheximide, allowed to grow for four days before scoring, and percent of CHX-resistant wells was calculated. Because generation of progeny expressing the cycloheximide marker requires successful production of a new macronucleus, cells whose macronuclear development was disrupted by the analog are killed in CHX.
This process involves de novo formation of new macronuclear telomeres in the progeny cells. Macronuclear development in ciliated protozoans such as Tetrahymena involves developmentally programmed, site-specific fragmentation of germline chromosomes into linear subchromosomes, whose ends are healed by de novo addition of telomeres. […] Because of the immediate requirement for telomere addition to fragmented DNA, it is possible that the latter process might be more sensitive to telomerase inhibition than telomere maintenance during vegetative growth. To test whether nucleoside analogs cause inhibition of macronuclear development due to a disruption of telomere formation, we mated two strains of Tetrahymena which are sensitive to cycloheximide, but whose progeny after mating are resistant to cycloheximide. Synchronized mated cells were treated with AZT at concentrations ranging from 10 μM to 5 mM for a period beginning just prior to when macronuclear development begins and continuing during macronuclear development (the period 6-24 hours after mating was initiated). […] In attempts to maximize the effect of AZT, cells were either refed at 6 hrs with 2% PPYS or Isobroth, or starved until 24 hrs (the duration of the AZT treatment). Such starvation arrests macronuclear development at an intermediate stage. When refed, macronuclear development would then be forced to proceed in the presence of the AZT. Control, unmated parental cells were also plated and exposed to drug.

[6] = biological target: T1, human telomerase obtained from the tumor cell line 296 (Homo sapiens, UniProt O14746); experiment: Inhibition of human telomerase from a tumor cell line; type: biochemical
T1 construct: human telomerase obtained from the tumor cell line 296; endogenous in cells; host or cells: tumor cell line 296 (so in the source)
T1 sequence (O14746 whole entry): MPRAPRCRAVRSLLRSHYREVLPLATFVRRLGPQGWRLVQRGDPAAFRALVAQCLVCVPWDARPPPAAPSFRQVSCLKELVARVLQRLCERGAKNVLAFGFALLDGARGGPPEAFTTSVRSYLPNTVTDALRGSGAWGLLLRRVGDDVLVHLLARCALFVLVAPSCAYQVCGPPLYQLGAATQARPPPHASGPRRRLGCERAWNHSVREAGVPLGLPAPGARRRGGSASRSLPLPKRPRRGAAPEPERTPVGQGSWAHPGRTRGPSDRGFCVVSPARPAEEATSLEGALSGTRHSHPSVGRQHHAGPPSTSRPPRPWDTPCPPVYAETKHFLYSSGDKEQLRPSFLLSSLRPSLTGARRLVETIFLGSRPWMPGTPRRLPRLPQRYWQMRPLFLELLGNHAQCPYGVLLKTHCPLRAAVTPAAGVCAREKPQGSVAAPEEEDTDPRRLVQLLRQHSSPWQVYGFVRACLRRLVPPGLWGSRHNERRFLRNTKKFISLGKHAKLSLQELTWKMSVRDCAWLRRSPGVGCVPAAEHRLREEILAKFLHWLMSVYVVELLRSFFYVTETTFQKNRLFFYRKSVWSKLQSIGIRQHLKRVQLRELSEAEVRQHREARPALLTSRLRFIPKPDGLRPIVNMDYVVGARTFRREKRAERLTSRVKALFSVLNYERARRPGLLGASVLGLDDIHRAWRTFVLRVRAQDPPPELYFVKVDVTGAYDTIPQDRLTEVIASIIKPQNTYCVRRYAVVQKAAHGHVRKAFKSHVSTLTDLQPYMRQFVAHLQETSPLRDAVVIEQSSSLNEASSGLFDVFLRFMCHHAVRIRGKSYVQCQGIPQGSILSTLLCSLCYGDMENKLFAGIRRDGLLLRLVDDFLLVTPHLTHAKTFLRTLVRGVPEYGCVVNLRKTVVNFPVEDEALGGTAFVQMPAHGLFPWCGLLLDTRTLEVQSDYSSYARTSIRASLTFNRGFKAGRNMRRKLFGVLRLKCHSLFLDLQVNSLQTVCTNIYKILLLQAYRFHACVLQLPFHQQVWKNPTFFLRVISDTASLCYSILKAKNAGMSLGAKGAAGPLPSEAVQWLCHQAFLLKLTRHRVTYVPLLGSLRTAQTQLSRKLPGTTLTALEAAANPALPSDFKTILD
T1 sequence (O60832 whole entry partner): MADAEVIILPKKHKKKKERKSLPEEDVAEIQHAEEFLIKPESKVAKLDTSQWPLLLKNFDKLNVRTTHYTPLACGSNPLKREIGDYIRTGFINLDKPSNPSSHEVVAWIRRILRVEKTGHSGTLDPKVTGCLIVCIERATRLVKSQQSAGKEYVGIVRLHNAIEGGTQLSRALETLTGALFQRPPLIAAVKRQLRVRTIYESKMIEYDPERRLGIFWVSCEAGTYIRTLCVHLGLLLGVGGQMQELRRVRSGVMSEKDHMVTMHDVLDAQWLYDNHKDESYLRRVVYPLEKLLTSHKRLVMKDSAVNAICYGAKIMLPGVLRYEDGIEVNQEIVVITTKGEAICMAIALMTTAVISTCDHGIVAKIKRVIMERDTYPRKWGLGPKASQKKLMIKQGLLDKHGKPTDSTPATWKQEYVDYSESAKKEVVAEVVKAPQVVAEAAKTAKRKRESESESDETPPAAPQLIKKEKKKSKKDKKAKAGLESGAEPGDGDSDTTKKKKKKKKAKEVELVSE
T1 sequence (Q9NPE3 whole entry partner): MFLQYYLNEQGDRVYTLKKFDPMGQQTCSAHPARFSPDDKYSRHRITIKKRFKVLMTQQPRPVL
T1 sequence (Q9NX24 whole entry partner): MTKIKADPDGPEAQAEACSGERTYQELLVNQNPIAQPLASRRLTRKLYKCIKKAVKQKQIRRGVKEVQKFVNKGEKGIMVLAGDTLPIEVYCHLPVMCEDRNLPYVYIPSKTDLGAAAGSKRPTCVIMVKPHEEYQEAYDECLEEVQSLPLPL
T1 sequence (Q9NY12 whole entry partner): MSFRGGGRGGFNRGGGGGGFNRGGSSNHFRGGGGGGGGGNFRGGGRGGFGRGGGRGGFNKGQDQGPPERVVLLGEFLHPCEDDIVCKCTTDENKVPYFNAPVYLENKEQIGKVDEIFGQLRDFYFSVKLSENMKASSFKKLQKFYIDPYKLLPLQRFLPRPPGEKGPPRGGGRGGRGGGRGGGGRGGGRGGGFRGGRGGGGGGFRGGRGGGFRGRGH

Tetrahymena cells [7] = experiment: Growth, morphology and senescence of Tetrahymena mass-transfer cultures with nucleoside analogs; type: cell-based, Tetrahymena thermophila; settings: 2% PPYS plus, mass transfer
Procedure: (§2) For analysis of macronuclear DNA from cultures containing the nucleoside analog AZT (Sigma), or controls lacking analog, at various timepoints during vegetative divisions, cells from stationary stock cultures were inoculated into 25 ml thymine-deficient Iso-sensitest broth (‘Isobroth’, Oxoid USA) in 250 ml flasks. Cultures were incubated at 30° C. with shaking (100 rpm) for 48 hours. Cells were counted and plated at 1000 cells/1.5 ml in 24-well plates (Falcon) and grown at 30° C., without shaking, for 48 hours. 5 μl of these log phase cells were used to inoculate 1 ml cultures (Isobroth) containing varied concentrations of nucleoside analog. Thereafter, every 2-4 days cells were transferred, either 5 μl per well, or 1-3 μl using a multi-pronged replicator into fresh 1 ml broth containing AZT. Remaining cells were pelleted and stored at −80° C. until processed for DNA analysis.
(§3) For analysis of macronuclear DNA from vegetative cultures containing the nucleoside analogs Ara-G (Calbiochem), ddG (Calbiochem), or ddI (Calbiochem), or controls lacking analog, stock cultures were grown overnight in 2% PPYS as described. Cells were counted and plated at 100 cells/2 ml in 2% PPYS containing varied amounts of analog, 1% DMSO (Fisher) (as a control for ddG and Ara-G), or 2% PPYS alone. Cells were replica plated into fresh medium every 2-6 days, and remaining cells were pelleted and stored at −80° C. until processed for DNA analysis.
To test whether such a phenotype could be produced by inhibitors of telomerase in Tetrahymena, duplicate log-phase cultures were grown for prolonged periods in the presence of varying concentrations of analogs. The growth and cell morphology of these cultures were monitored, and DNA was isolated at different times for telomere length analysis. […] From growth rate measurements it was calculated that the cells went through 150 to 250 cell generations in the course of this 50 day period.

Tetrahymena cells [8] = experiment: Telomere length in vegetatively grown Tetrahymena by Southern blot; type: cell-based, Tetrahymena thermophila; settings: up to 1 mM, 5 days of subculturing (15-20 cell generations), 2% PPYS
Procedure: as §2, §3
For analysis of macronuclear DNA from vegetative cultures containing d4T (Sigma) or control lacking the analog, stock cultures (SB210 VI) were grown overnight in Isobroth as described. Cells were then counted and duplicate cultures inoculated at 500 cells/5 ml Isobroth in 50 ml conical tubes, and grown at 30° C., shaking 80 rpm. 500-2000 cells were transfered to fresh broth every 2-4 days, and the remainder pelleted and stored at −80° C. until processed for DNA analysis.
Restriction digests, agarose gel electrophoresis, transfer of DNA to Nytran filters (Schleicher and Schuell), and hybridization with ^32P-nick-trapplated or random-primed probes were carried out using standard procedures (Maniatis et.al. 1989). Telomere length was analyzed as described previously for Tetrahymena [Larson 50 Cell, 477, 1987].
Telomere lengths in cells grown in the presence of the different analogs were monitored by Southern blot analysis of DNA samples extracted at a series of time points during the subculturings. The telomeres of cells grown vegetatively in 1 and 5 mM AZT in 2% PPYS medium were reproducibly shortened by up to an average of 170 base pairs compared with the control cultures grown in 2% PPYS in the absence of the drug (FIG. 21A and B). This shortening of telomeres occured in a concentration-dependent manner (FIG. 21B), with at least 50% of the maximal shortening effect occurring by 10 μM AZT, the lowest concentration tested.

[9] = tested on: lymphoma cell line JY 616; experiment: Telomere length of JY lymphoma cells by Southern blot; type: cell-based, human; settings: 10 μM, 9 and 10 weeks
Procedure: The first lane is DNA from the cells at the start of the experiment, the second is the RPMI control, and the third is cells treated with AZT for the times indicated.
Cells were treated over a 10 week period with either 10 μM ddG in 0.01% DMSO or medium with 0.01% DMSO only.
as §1

[10] = 0.01 mM analog (head prints MM), first block for the analog
[11] = 0.01 mM analog, first block for the analog
[12] = 0.1 mM analog (head prints MM), first block for the analog
[13] = 0.1 mM analog, first block for the analog
[14] = 1.0 mM analog (head prints MM), first block for the analog
[15] = 1.0 mM analog, first block for the analog
[16] = 0.001 mM analog (head prints MM), first block for the analog
[17] = 0.001 mM analog, first block for the analog

Row | Compound | % CHX-R (Tetrahymena cells [5]; [10]) | # CHX-R (Tetrahymena cells [5]; [11]) | % CHX-R (Tetrahymena cells [5]; [12]) | # CHX-R (Tetrahymena cells [5]; [13]) | % CHX-R (Tetrahymena cells [5]; [14]) | # CHX-R (Tetrahymena cells [5]; [15]) | irreversible disruption of macronuclear development (Tetrahymena cells [5]) | inhibition of human telomerase [6] | telomere length compared with control cultures (Tetrahymena cells [8]) | % CHX-R (Tetrahymena cells [5]; [16]) | # CHX-R (Tetrahymena cells [5]; [17]) | further results
1 | 5′-TTAGGGTTAGGG-3′ (listed as DNA, chemistry not given here) [GTO-12, guanidine-rich terminal oligonucleotide-12 bp] |  |  |  |  |  |  |  |  |  |  |  | TRF length after 90 days ([1]; 10 μM, 30 μM and 100 μM): regained TRF length in a dose dependent manner; population doublings in 90 days ([1]; 10 μM): 40 PDL; population doublings in 90 days ([1]; 30 μM): 35 PDL; population doublings in 90 days ([1]; 100 μM): 25 PDL; doublings after which cells ceased to proliferate ([2]; 1.0 μM): less than 10 doubling; proliferation phenotype ([2]; doses of less than 1.0 μM (0.1 μM, 0.01 μM)): continued replicating in an immortal phenotype
2 | Nc1nc2c(ncn2[C@@H]2O[C@H](CO)[C@@H](O)[C@@H]2O)c(=O)[nH]1 [Ara-G] | 81% | 114 | 80% | 134 | 55% | 89 | little or no irreversible disruption | effective inhibitors of human telomerase |  |  |  | plating efficiency compared with control medium (Tetrahymena cells [3]): no changes in the plating efficiency; cell growth [4]: slowed growth; % CHX-R (Tetrahymena cells [5]; 1.0 mM analog (head prints MM), second block for the analog): 59%; # CHX-R (Tetrahymena cells [5]; 1.0 mM analog, second block for the analog): 51; % CHX-R (Tetrahymena cells [5]; 2.0 mM analog (head prints MM), second block for the analog): 43%; # CHX-R (Tetrahymena cells [5]; 2.0 mM analog, second block for the analog): 40; cell doubling rate, morphology, long term viability (Tetrahymena cells [7]): no effects on cell doubling rate, morphology or long term viability
3 | Nc1nc2c(ncn2[C@H]2CC[C@@H](CO)O2)c(=O)[nH]1 [ddG] |  |  | 85% | 73 | 77% | 51 | little or no irreversible disruption | effective inhibitors of human telomerase | no changes in telomere length | 84% | 86 | telomere length compared to the DMSO control [9]: decrease in telomere length
4 | O=c1[nH]cnc2c1ncn2[C@H]1CC[C@@H](CO)O1 [ddI] | 89% | 85 | 78% | 83 | 91% | 100 | little or no irreversible disruption |  | no changes in telomere length | 83% | 59 | 
